Test results published in patent publication US8716242B2, “β-hairpin peptidomimetics” (priority 2009, dated 2014).
Bridge positions count the residues as written; N and C are the ends. Square brackets hold non-standard residues; d marks the D form. Peptide text beside a SMILES is read from it. * marks the point of attachment. Palmitoyl = CCCCCCCCCCCCCCCC(=O)*; Lauroyl = CCCCCCCCCCCC(=O)*; Dab = NCC[C@H](N)C(=O)O

Tests used:
human CXCR4 = molecular target: T1, human CXCR4 (Homo sapiens, UniProt P61073); test: Ca2+-assay: CXCR4-antagonizing activity (SDF-1 induced calcium mobilization); format: cell-based; details: mouse pre-B cell line 300-19 transfected with human CXCR4; SDF-1 induced Ca2+ mobilization; read-out: IC50% [nM] ± SD, CXCR4 receptor
T1 construct: expressed in transfected cells; host or cells: mouse pre-B cell line 300-19
In short: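 Mouse pre-B 300-19 cells stably expressing human CXCR4, loaded with Calcium 4 dye in HBSS/20 mM HEPES pH 7.4/0.1% BSA for 1 h at RT. Peptides added before SDF-1; fluorescence (ex 485/em 525 nm) followed for 90 s. IC50 from four-parameter logistic fit of % maximal SDF-1 response.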

in vivo = test: in vivo; set-up: species or system male CD-1 mice; details: for AUC0-∞ dcor. / Cmax dcor.: mouse
Method: 2.7. Pharmacokinetic Study (PK)
Pharmacokinetic study after intravenous (i.v.) and subcutaneous (s.c.) administration was performed for the compounds of Ex. 17, Ex. 20, Ex. 25, Ex. 26, Ex. 28, and Ex. 29. […] The compounds of Ex. 17, Ex. 25, Ex. 26, Ex. 28, and Ex. 29 were administered i.v. and s.c. as a cassette whereas for the compound of Ex. 20a single i.v. and s.c. administration was accomplished.
30 grams (±20%) male CD-1 mice obtained from Janvier, France, were used in the study testing the cassette compounds. The vehicle, phosphate buffered saline containing 5% DMSO, was added to give a final concentration of 0.5 mg/mL of the compounds (i.v. route and s.c. route). The volume was 2 mL/kg i.v. and 10 mL/kg s.c. and the cassette compounds were injected to give a final intravenous dose of 1 mg/kg and an subcutaneous dose of 5 mg/kg. Approximately 500 μL of blood were removed from the opened heart at predetermined time intervals (5, 15, 30 min and 1, 2, 4, 8 and 12 hours for the i.v. study and 5, 15, 30 min and 1, 2, 4, 8, 12 and 24 hours for the s.c. study) and added to heparinized tubes. Plasma was removed from pelleted cells upon centrifugation and frozen at −80° C. prior to HPLC-MS analysis. For the compound of Ex. 20 30 grams (±20%) male CD-1 mice obtained from Charles River Laboratories Deutschland GmbH were used. The vehicle, phosphate buffered saline, was added to give a final concentration of 0.2 mg/mL of the compound (i.v. route) and 1 mg/mL (s.c. route). The volume was 5 mL/kg i.v. and s.c. and the compound was injected to give a final intravenous dose of 1 mg/kg and an subcutaneous dose of 5 mg/kg. Approximately 300-400 μL of blood was removed under light isoflurane anesthesia by cardiac puncture at predetermined time intervals (5, 15, 30 min and 1, 2, 3, 4, 6, 12 hours for the i.v. study and 15, min and 1, 2, 4, 6, 8, 12 and 24 hours for the s.c. study) and added to heparinized tubes. Plasma was removed from pelleted cells upon centrifugation and frozen at −80° C. prior to HPLC-MS analysis.
Preparation of the Plasma Calibration Samples
“Blank” mouse plasma from untreated animals was used. Aliquots of plasma of 0.2 mL each were spiked with 50 ng of propranolol (Internal Standard, IS), (sample preparation by solid phase extraction on OASIS® HLB cartridges [Waters]) and with known amounts of Ex. 20 in order to obtain 9 plasma calibration samples in the range 10-5000 nM. The OASIS® HLB cartridges were conditioned with 1 mL of methanol and then with 1 mL of 1% NH3 in water. Samples were then diluted with 700 μL of 1% NH3 in water and loaded. The plate was washed with 1 mL of methanol/1% NH3 in water 5/95 (v/v). Elution was performed using 1 mL of 0.1% TFA in methanol.
The plate containing eluates was introduced into the concentrator system and taken to dryness. The residues were dissolved in 100 μL of formic acid 0.1%/acetonitrile, 95/5 (v/v) and analysed in the HPLC/MS on a reverse phase analytical column (Jupiter C18, 50×2.0 mm, 5 μm, Phenomenex), using gradient elution (mobile phases A: 0.1% formic acid in water, B: acetonitrile; from 5% B to 100% B in 2 min.).
Preparation of Plasma Samples
Samples coming from animal treatments were pooled in order to obtain an appropriate volume for the extraction. If the total volume obtained was less than 0.2 mL the appropriate amount of “blank” mouse plasma was added in order to keep the matrix identical to the calibration curve. Samples were than spiked with IS and processed as described for the calibration curve.
Pharmacokinetic Evaluation
In order to perform PK analysis pooled plasma data (n=3 mice) was used. PK parameters were calculated by WinNonLin™ software version 5.2.1 (Pharsight—A Certara™ Company, Mountain View, Calif. 94041 USA) using non-compartmental analysis with a linear up/log down trapezoidal calculation method. For the terminal elimination phase at least 3 time points and a correlation coefficient greater than 0.85 was used. […]

T1 sequence (P61073 whole entry): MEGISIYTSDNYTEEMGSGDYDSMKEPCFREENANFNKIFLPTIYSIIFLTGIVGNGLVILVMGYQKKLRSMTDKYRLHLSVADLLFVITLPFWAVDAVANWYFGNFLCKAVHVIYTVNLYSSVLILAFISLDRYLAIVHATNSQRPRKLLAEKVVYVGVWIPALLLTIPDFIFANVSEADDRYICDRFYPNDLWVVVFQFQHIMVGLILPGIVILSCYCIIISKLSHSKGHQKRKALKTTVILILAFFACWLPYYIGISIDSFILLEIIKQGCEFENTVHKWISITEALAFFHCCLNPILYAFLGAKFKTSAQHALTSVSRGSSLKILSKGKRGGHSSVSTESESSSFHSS

SMILES: CCCCCCCCCCCC(=O)NCCCC[C@@H]1NC(=O)[C@H](Cc2ccc(O)cc2)NC(=O)[C@@H]2CSSC[C@H](NC(=O)[C@H](C)NC(=O)[C@H](Cc3c[nH]cn3)NC(=O)[C@H](Cc3ccc(O)cc3)NC(=O)[C@@H]3CCCN3C(=O)[C@H]3CCCN3C(=O)[C@H](CCCCN)NC1=O)C(=O)N[C@@H](CCCNC(=N)N)C(=O)N[C@@H](C)C(=O)N1CCC[C@@H]1C(=O)N[C@@H](CCN)C(=O)N[C@@H](CCCNC(=N)N)C(=O)N[C@@H](Cc1ccc(O)cc1)C(=O)N2 [Ex. 17] (cyclo(YHACRA[dP][Dab]RYCYK(Lauroyl)K[dP]P); disulfide 4-11)
- IC50 (human CXCR4): 2.8 ± 0.4 nM
- bioavailability (in vivo; male, CD-1, mouse): 114%
- AUC(0-inf) (in vivo; male, CD-1, mouse, iv, 1 mg/kg): 2950 ng·h/mL
- Cmax (in vivo; male, CD-1, mouse, iv, 1 mg/kg): 2640 ng/mL
- Tmax (in vivo; male, CD-1, mouse, iv, 1 mg/kg): 0.1 h
- half-life (in vivo; male, CD-1, mouse, iv, 1 mg/kg): 2 h
- level at 0.083 h (in vivo; male, CD-1, mouse, iv, 1 mg/kg): 2640 ng/mL
- level at 0.25 h (in vivo; male, CD-1, mouse, iv, 1 mg/kg): 2030 ng/mL
- level at 0.5 h (in vivo; male, CD-1, mouse, iv, 1 mg/kg): 1560 ng/mL
- level at 1 h (in vivo; male, CD-1, mouse, iv, 1 mg/kg): 1290 ng/mL
- level at 2 h (in vivo; male, CD-1, mouse, iv, 1 mg/kg): 178 ng/mL
- level at 4 h (in vivo; male, CD-1, mouse, iv, 1 mg/kg): 141 ng/mL
- level at 8 h (in vivo; male, CD-1, mouse, iv, 1 mg/kg): 15 ng/mL
- level at 12 h (in vivo; male, CD-1, mouse, iv, 1 mg/kg): 8 ng/mL
- AUC(0-inf) (in vivo; male, CD-1, mouse, sc, 5 mg/kg): 16800 ng·h/mL
- Cmax (in vivo; male, CD-1, mouse, sc, 5 mg/kg): 1750 ng/mL
- Tmax (in vivo; male, CD-1, mouse, sc, 5 mg/kg): 2 h
- half-life (in vivo; male, CD-1, mouse, sc, 5 mg/kg): 4.3 h
- level at 0.25 h (in vivo; male, CD-1, mouse, sc, 5 mg/kg): 140 ng/mL
- level at 0.5 h (in vivo; male, CD-1, mouse, sc, 5 mg/kg): 450 ng/mL
- level at 1 h (in vivo; male, CD-1, mouse, sc, 5 mg/kg): 874 ng/mL
- level at 2 h (in vivo; male, CD-1, mouse, sc, 5 mg/kg): 1750 ng/mL
- level at 4 h (in vivo; male, CD-1, mouse, sc, 5 mg/kg): 1410 ng/mL
- level at 8 h (in vivo; male, CD-1, mouse, sc, 5 mg/kg): 1240 ng/mL
- level at 12 h (in vivo; male, CD-1, mouse, sc, 5 mg/kg): 567 ng/mL
- level at 24 h (in vivo; male, CD-1, mouse, sc, 5 mg/kg): 65 ng/mL
- AUC0-∞ dcor. (in vivo; iv, 1 mg/kg): 2950.8 kg·ng·h/mg/mL
- Cmax dcor. (in vivo; iv, 1 mg/kg): 2640.0 kg·ng/mg/mL
- AUC0-∞ dcor. (in vivo; sc, 5 mg/kg): 3357.9 kg·ng·h/mg/mL
- Cmax dcor. (in vivo; sc, 5 mg/kg): 350.6 kg·ng/mg/mL

SMILES: CCCCCCCCCCCCCCCC(=O)NCCCC[C@@H]1NC(=O)[C@H](Cc2ccc(O)cc2)NC(=O)[C@@H]2CSSC[C@H](NC(=O)[C@H](Cc3ccc(O)cc3)NC(=O)[C@H](Cc3c[nH]cn3)NC(=O)[C@H](Cc3ccc(O)cc3)NC(=O)[C@@H]3CCCN3C(=O)[C@H]3CCCN3C(=O)[C@H](CCCCN)NC1=O)C(=O)N[C@@H](CO)C(=O)N[C@@H](C)C(=O)N1CCC[C@@H]1C(=O)N[C@@H](CCN)C(=O)N[C@@H](CCCNC(=N)N)C(=O)N[C@@H](Cc1ccc(O)cc1)C(=O)N2 [Ex. 20] (cyclo(YHYCSA[dP][Dab]RYCYK(Palmitoyl)K[dP]P); disulfide 4-11)
- IC50 (human CXCR4): 4 ± 1.8 nM
- bioavailability (in vivo; male, CD-1, mouse): 139%
- AUC(0-inf) (in vivo; male, CD-1, mouse, iv, 1 mg/kg): 5500 ng·h/mL
- Cmax (in vivo; male, CD-1, mouse, iv, 1 mg/kg): 2210 ng/mL
- Tmax (in vivo; male, CD-1, mouse, iv, 1 mg/kg): 0.5 h
- half-life (in vivo; male, CD-1, mouse, iv, 1 mg/kg): 2 h
- level at 0.083 h (in vivo; male, CD-1, mouse, iv, 1 mg/kg): 777 ng/mL
- level at 0.25 h (in vivo; male, CD-1, mouse, iv, 1 mg/kg): 1520 ng/mL
- level at 0.5 h (in vivo; male, CD-1, mouse, iv, 1 mg/kg): 2210 ng/mL
- level at 1 h (in vivo; male, CD-1, mouse, iv, 1 mg/kg): 1380 ng/mL
- level at 2 h (in vivo; male, CD-1, mouse, iv, 1 mg/kg): 992 ng/mL
- level at 3 h (in vivo; male, CD-1, mouse, iv, 1 mg/kg): 638 ng/mL
- level at 4 h (in vivo; male, CD-1, mouse, iv, 1 mg/kg): 486 ng/mL
- level at 6 h (in vivo; male, CD-1, mouse, iv, 1 mg/kg): 234 ng/mL
- level at 12 h (in vivo; male, CD-1, mouse, iv, 1 mg/kg): 13 ng/mL
- AUC(0-inf) (in vivo; male, CD-1, mouse, sc, 5 mg/kg): 38200 ng·h/mL
- Cmax (in vivo; male, CD-1, mouse, sc, 5 mg/kg): 3040 ng/mL
- Tmax (in vivo; male, CD-1, mouse, sc, 5 mg/kg): 12 h
- half-life (in vivo; male, CD-1, mouse, sc, 5 mg/kg): 2.9 h
- level at 0.5 h (in vivo; male, CD-1, mouse, sc, 5 mg/kg): 70 ng/mL
- level at 1 h (in vivo; male, CD-1, mouse, sc, 5 mg/kg): 342 ng/mL
- level at 2 h (in vivo; male, CD-1, mouse, sc, 5 mg/kg): 868 ng/mL
- level at 4 h (in vivo; male, CD-1, mouse, sc, 5 mg/kg): 1700 ng/mL
- level at 6 h (in vivo; male, CD-1, mouse, sc, 5 mg/kg): 2800 ng/mL
- level at 8 h (in vivo; male, CD-1, mouse, sc, 5 mg/kg): 2860 ng/mL
- level at 12 h (in vivo; male, CD-1, mouse, sc, 5 mg/kg): 3040 ng/mL
- level at 24 h (in vivo; male, CD-1, mouse, sc, 5 mg/kg): 179 ng/mL
- AUC0-∞ dcor. (in vivo; iv, 1 mg/kg): 5504.8 kg·ng·h/mg/mL
- Cmax dcor. (in vivo; iv, 1 mg/kg): 2210.0 kg·ng/mg/mL
- AUC0-∞ dcor. (in vivo; sc, 5 mg/kg): 7630.8 kg·ng·h/mg/mL
- Cmax dcor. (in vivo; sc, 5 mg/kg): 608.7 kg·ng/mg/mL
